PubChem BioAssay AID248 (DTP/NCI, 2004)
Toxic doses and inconclusive results are not listed. Cut-off read from the data, not from the text of the source: active = T/C of 150% or more; inactive = T/C below 125%.

Tested on: L1210 leukemia ip in BDF1 mice, survival T/C
Test: NCI In Vivo Anticancer Drug Screen. Data for tumor model L1210 Leukemia (intraperitoneal) in B6D2F1 (BDF1) mice
Conditions: endpoint: mean survival time, higher = longer survival
Outline: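 Ratio derived from survival: compound-dosed mice over vehicle-dosed mice, all bearing a transplantable tumor.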

[1] = dose: 100.0 mg/kg/injection, schedule: Q04DX003 (ip), vehicle: Klucel (hydroxypropylcellulose) (HPC)
[2] = dose: 200.0 mg/kg/injection, schedule: Q04DX003 (ip), vehicle: Klucel (hydroxypropylcellulose) (HPC)
[3] = dose: 400.0 mg/kg/injection, schedule: Q04DX003 (ip), vehicle: Klucel (hydroxypropylcellulose) (HPC)
[4] = dose: 100.0 mg/kg/injection, schedule: Q01DX001 (ip), vehicle: carboxymethylcellulose (CMC)
[5] = dose: 200.0 mg/kg/injection, schedule: Q01DX001 (ip), vehicle: carboxymethylcellulose (CMC)
[6] = dose: 400.0 mg/kg/injection, schedule: Q01DX001 (ip), vehicle: carboxymethylcellulose (CMC)

Measured: T/C

CC1(C(N)=O)OC12CCCCC2CCC(=O)O (centres undefined)
inactive: [1] 102 % of control | [2] 93 % of control | [3] 93 % of control

CCCCC1CCC(N)CC1 (centres undefined)
inactive: dose: 25.0 mg/kg/injection, schedule: Q04DX003 (ip), vehicle: saline 105 % of control | dose: 50.0 mg/kg/injection, schedule: Q04DX003 (ip), vehicle: saline 100 % of control | dose: 100.0 mg/kg/injection, schedule: Q04DX003 (ip), vehicle: saline 105 % of control

Nc1ccc(CSc2ccc(Cl)cc2)cc1
inactive: dose: 12.5 mg/kg/injection, schedule: Q01DX009 (ip), vehicle: Klucel (hydroxypropylcellulose) (HPC) 94 % of control | dose: 25.0 mg/kg/injection, schedule: Q01DX009 (ip), vehicle: Klucel (hydroxypropylcellulose) (HPC) 97 % of control | dose: 50.0 mg/kg/injection, schedule: Q01DX009 (ip), vehicle: Klucel (hydroxypropylcellulose) (HPC) 87 % of control | dose: 75.0 mg/kg/injection, schedule: Q01DX009 (ip), vehicle: Klucel (hydroxypropylcellulose) (HPC) 88 % of control | dose: 170.0 mg/kg/injection, schedule: Q01DX009 (ip), vehicle: Klucel (hydroxypropylcellulose) (HPC) 94 % of control

CCOC(=O)c1cc(N)c(N2CCCC2)cc1Cl
inactive: dose: 100.0 mg/kg/injection, schedule: Q01DX009 (ip), vehicle: saline with Tween-80 109 % of control | dose: 100.0 mg/kg/injection, schedule: Q04DX003 (ip), vehicle: saline with Tween-80 93 % of control | dose: 200.0 mg/kg/injection, schedule: Q01DX009 (ip), vehicle: saline with Tween-80 98 % of control | dose: 200.0 mg/kg/injection, schedule: Q04DX003 (ip), vehicle: saline with Tween-80 93 % of control | dose: 400.0 mg/kg/injection, schedule: Q01DX009 (ip), vehicle: saline with Tween-80 95 % of control | dose: 400.0 mg/kg/injection, schedule: Q04DX003 (ip), vehicle: saline with Tween-80 93 % of control

BrC=C=C1CCCCC1
inactive: dose: 100.0 mg/kg/injection, schedule: Q01DX009 (ip), vehicle: saline 98 % of control | dose: 200.0 mg/kg/injection, schedule: Q01DX009 (ip), vehicle: saline 93 % of control | dose: 400.0 mg/kg/injection, schedule: Q01DX009 (ip), vehicle: saline 95 % of control

O=C1C=C(c2ccccc2)C(c2ccccc2)=C1
inactive: dose: 50.0 mg/kg/injection, schedule: Q01DX001 (ip), vehicle: carboxymethylcellulose (CMC) 101 % of control | [4] 95 % of control | [5] 92 % of control | [6] 103 % of control

Nc1nc(N)c(-c2ccccc2)c(C(=O)O)n1
inactive: dose: 50.0 mg/kg/injection, schedule: Q01DX001 (ip), vehicle: Klucel (hydroxypropylcellulose) (HPC) 101 % of control | dose: 50.0 mg/kg/injection, schedule: Q04DX003 (ip), vehicle: Klucel (hydroxypropylcellulose) (HPC) 94 % of control | dose: 100.0 mg/kg/injection, schedule: Q01DX001 (ip), vehicle: Klucel (hydroxypropylcellulose) (HPC) 95 % of control | [1] 105 % of control | dose: 200.0 mg/kg/injection, schedule: Q01DX001 (ip), vehicle: Klucel (hydroxypropylcellulose) (HPC) 95 % of control | [2] 105 % of control

COc1ccc(C(=O)NCCc2ccccc2)cc1
inactive: [1] 96 % of control | [2] 105 % of control | [3] 104 % of control

CCC(=O)O[C@H]1CC[C@H]2[C@@H]3[C@H](C)CC4=CC(=O)CC[C@]4(C)[C@H]3CC[C@]12C
inactive: [4] 97 % of control | [5] 94 % of control | [6] 90 % of control

CCC(C(O)c1ccccc1)[N+](=O)[O-] (centres undefined)
inactive: dose: 100.0 mg/kg/injection, schedule: Q04DX003 (ip), vehicle: other 100 % of control | dose: 200.0 mg/kg/injection, schedule: Q04DX003 (ip), vehicle: other 100 % of control | dose: 400.0 mg/kg/injection, schedule: Q04DX003 (ip), vehicle: other 96 % of control
